The source of these data is patent US12365687B2 (Hoffmann-La Roche Inc., priority 2021, dated 2025).

Bounds are passed on as bounds.

Assay [1] concerns the target human GABAA α5β2γ1 receptor (Homo sapiens (Human), UniProt P31644+Q8N1C3). As to the kind of experiment: Radioligand binding assay for γ1-containing GABAA subtypes, [3H]RO7239181 competition (α5β2γ1).
The target of assay [2] is human GABAA α2β2γ1 receptor (Homo sapiens (Human), UniProt P47869+Q8N1C3). As to the kind of experiment: Radioligand binding assay for γ1-containing GABAA subtypes, [3H]RO7239181 competition (α2β2γ1).
In assay [3] the target is human GABAA α1β3γ2 receptor (Homo sapiens (Human), UniProt P14867+P18507). As to the kind of experiment: Radioligand binding assay for γ2-containing GABAA subtypes, [3H]Flumazenil competition (α1β3γ2). The note with it: for γ2/γ1 Selectivity Ratio: Ki α1β3γ2 (nM)/Ki α2β2γ1 (nM); for LogSel: Log[Ki α1β3γ2 (nM)/Ki α2β2γ1 (nM)].
Assay [4] has as its target α2β2γ1 GABAA receptor subtype (Homo sapiens (Human), UniProt P47869+Q8N1C3). As to the kind of experiment: Two-electrode voltage clamp electrophysiology in Xenopus oocytes expressing GABAA receptors (modulation of GABA EC20 current). In kind it is cell-based. The note with it: for Efficacy (GABA)%: % modulation of GABA EC20 = 100*(Fold increase-1), α2β2γ1 oocytes, compound at approx. 30-fold Ki; for Fold increase h-GABA-A α2β2γ1 oocyte @ 30-fold Ki: Xenopus oocytes expressing α2β2γ1, compound at approx. 30-fold its Ki α2β2γ1, GABA EC20 current. The gist of the method: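 Each concentration was tested on ≥3 oocytes held at −80 mV at room temperature, recorded 3-5 days post-injection. A control and a test response to EC20 GABA (1.5 min each) were superimposed and their point-by-point ratio taken. Peak ratio reported as % modulation of GABA EC20 = 100×(fold increase−1).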

Setting [5] is: Ki h-GABAA α2β2γ1, [3H]RO7239181 competition binding, human GABAA α2β2γ1.
Where [6] appears, read: Ki h-GABAA α2β2γ1, displacement of [3H]RO7239181, membranes of HEK293F cells expressing human receptors, means of two determinations.

In general, Ki refers to a dissociation constant, usually derived from enzyme kinetics or from competition with a known ligand. The low end stands for tighter binding, the high end for weaker binding. In assay [1], `CC(=O)NCc1nc2n(n1)-c1ccc(Cl)c(Cl)c1C(c1c(F)cccc1F)=N[C@H]2C` [Example 67, N-[[(4S)-7,8-dichloro-6-(2,6-difluorophenyl)-4-methyl-4H-[1,2,4]triazolo[1,5-a][1,4]benzodiazepin-2-yl]methyl]acetamide] gave an inhibition constant Ki of 0.79 nM. For the same compound, the affinity in assay [2] (setting [5]) corresponds to a Ki of 5.2 nM. This compound also yielded an inhibitory constant (Ki) in assay [2] (setting [6]) of 5.2 nM. For the same compound, in assay [3], the Ki was determined as 503 nM, the “γ2/γ1 Selectivity Ratio” value is given as 96.5 and the LogSel is recorded as 1.98. Moreover, in assay [4], the “Efficacy (GABA)%” value was 47% and the “Fold increase h-GABA-A α2β2γ1 oocyte @ 30-fold Ki” value came out at 1.47.

`C[C@@H]1N=C(c2c(F)cccc2F)c2c(ccc(Cl)c2Cl)-n2cc(C(=O)N3CC(O)C3)nc21` [Example 68, (3-hydroxyazetidin-1-yl)-[(4S)-7,8-dichloro-6-(2,6-difluorophenyl)-4-methyl-4H-imidazo[1,2-a][1,4]benzodiazepin-2-yl]methanone] showed a Ki in assay [1] of 1.48 nM. In addition, in assay [2] (setting [5]), the affinity corresponds to a Ki of 7.2 nM. In assay [2] (setting [6]), affinity was put at a Ki of 7.2 nM. In assay [3], the inhibition constant Ki was 318 nM, the “γ2/γ1 Selectivity Ratio” value was determined as 44.0 and the LogSel was 1.64. Further, in assay [4], the “Efficacy (GABA)%” value was 107% and the “Fold increase h-GABA-A α2β2γ1 oocyte @ 30-fold Ki” value is given as 2.07.

Compound `COC1CN(C(=O)c2nc3n(n2)-c2ccc(C(F)(F)F)c(Cl)c2C(c2c(F)cccc2F)=NC3)C1` [Example 37, [7-chloro-6-(2,6-difluorophenyl)-8-(trifluoromethyl)-4H-[1,2,4]triazolo[1,5-a][1,4]benzodiazepin-2-yl]-(3-methoxyazetidin-1-yl)methanone] came in with a Ki in assay [1] of 1.8 nM. The compound further showed a Ki in assay [2] (setting [5]) of 4.5 nM. The affinity in assay [2] (setting [6]) corresponds to a Ki of 4.49 nM. In assay [3], the inhibition constant Ki came to 772 nM, the “γ2/γ1 Selectivity Ratio” value is given as 171.8 and the LogSel came out at 2.24. Also, in assay [4], the “Efficacy (GABA)%” value came to 47% and the “Fold increase h-GABA-A α2β2γ1 oocyte @ 30-fold Ki” value turned out to be 1.47.

Regarding `C[C@@H]1N=C(c2c(F)cccc2F)c2c(ccc(Cl)c2Cl)-n2nc(C(=O)N3CC(O)C3)nc21` [Example 25, [(4S)-7,8-dichloro-6-(2,6-difluorophenyl)-4-methyl-4H-[1,2,4]triazolo[1,5-a][1,4]benzodiazepin-2-yl]-(3-hydroxyazetidin-1-yl)methanone], the inhibition constant (Ki) in assay [1] turned out to be 1.44 nM. For the same compound, the Ki in assay [2] (setting [5]) worked out at 4 nM. Also, the Ki in assay [2] (setting [6]) was found to be 3.98 nM. Further, in assay [3], the inhibitory constant (Ki) stood at 688 nM, the “γ2/γ1 Selectivity Ratio” value came to 172.8 and the LogSel amounted to 2.24. Also, in assay [4], the “Efficacy (GABA)%” value is listed as 63% and the “Fold increase h-GABA-A α2β2γ1 oocyte @ 30-fold Ki” value turned out to be 1.63.

As to `C[C@@H]1N=C(c2c(F)cccc2F)c2c(ccc(Cl)c2Cl)-n2cc(C(=O)N3CCC3)nc21` [Example 70, azetidin-1-yl-[(4S)-7,8-dichloro-6-(2,6-difluorophenyl)-4-methyl-4H-imidazo[1,2-a][1,4]benzodiazepin-2-yl]methanone], the inhibition constant Ki in assay [1] amounted to 1.08 nM; in assay [2] (setting [5]), 18.7 nM; in assay [2] (setting [6]) it was 18.7 nM; in assay [3], 500 nM. In addition, the “γ2/γ1 Selectivity Ratio” value in assay [3] is listed as 26.7. In assay [3], this compound returned a LogSel of 1.43. Moreover, the “Efficacy (GABA)%” value in assay [4] is reported as 73%. In assay [4], the “Fold increase h-GABA-A α2β2γ1 oocyte @ 30-fold Ki” value is listed as 1.73.

As to `Fc1cccc(F)c1C1=NCc2nc(C(F)F)nn2-c2ccc(Cl)c(Cl)c21` [Example 33, 7,8-dichloro-2-(difluoromethyl)-6-(2,6-difluorophenyl)-4H-[1,2,4]triazolo[1,5-a][1,4]benzodiazepine], in assay [1], the inhibition constant (Ki) amounted to 0.69 nM. In assay [2] (setting [5]), this compound had a Ki of 10.8 nM. In assay [2] (setting [6]), this compound came in with an inhibitory constant (Ki) of 10.8 nM. In addition, in assay [3], the inhibition constant Ki came out at 659 nM, the “γ2/γ1 Selectivity Ratio” value turned out to be 61.2 and the LogSel came to 1.79. Further, in assay [4], the “Efficacy (GABA)%” value was 56% and the “Fold increase h-GABA-A α2β2γ1 oocyte @ 30-fold Ki” value amounted to 1.56.

As to `C[C@@H]1N=C(c2c(F)cccc2F)c2c(ccc(Cl)c2Cl)-n2nc(C(=O)N3CC[C@@H](F)C3)nc21` [Example 76, [(4S)-7,8-dichloro-6-(2,6-difluorophenyl)-4-methyl-4H-[1,2,4]triazolo[1,5-a][1,4]benzodiazepin-2-yl]-[(3R)-3-fluoropyrrolidin-1-yl]methanone], the Ki in assay [1] was 1.64 nM; in assay [2] (setting [5]), 6.1 nM; in assay [2] (setting [6]), 6.1 nM; in assay [3], 968 nM. Further, the “γ2/γ1 Selectivity Ratio” value in assay [3] was 157.7. In assay [3], this compound registered a LogSel of 2.20. Further, in assay [4], the “Efficacy (GABA)%” value worked out at 52%. Further, in assay [4], the “Fold increase h-GABA-A α2β2γ1 oocyte @ 30-fold Ki” value is reported as 1.52.

`C[C@@H]1N=C(c2ncccc2F)c2c(ccc(C(F)(F)F)c2Cl)-n2nc(C(=O)N3CC(C(F)F)C3)nc21` [Example 142, [(4S)-7-chloro-6-(3-fluoro-2-pyridyl)-4-methyl-8-(trifluoromethyl)-4H-[1,2,4]triazolo[1,5-a][1,4]benzodiazepin-2-yl]-[3-(difluoromethyl)azetidin-1-yl]methanone] returned a Ki in assay [1] of 8.06 nM. Further, in assay [2] (setting [5]), the Ki stood at 39.7 nM. The Ki in assay [2] (setting [6]) is 39.7 nM. Besides, in assay [3], the Ki is more than 30000 nM, the “γ2/γ1 Selectivity Ratio” value was 756.0 and the LogSel is 2.88. In assay [4], the “Efficacy (GABA)%” value stood at 123% and the “Fold increase h-GABA-A α2β2γ1 oocyte @ 30-fold Ki” value is given as 2.23.

In assay [1], `C[C@@H]1N=C(c2c(F)cccc2F)c2c(ccc(C(F)(F)F)c2Cl)-n2nc(NC(=O)N3C4COCC3C4)nc21` (single isomer, unassigned) [Example 130] displayed a Ki of 6.9 nM. This compound also returned a Ki in assay [2] (setting [5]) of 36.6 nM. The same compound displayed an inhibitory constant (Ki) in assay [2] (setting [6]) of 36.6 nM. Besides, in assay [3], the Ki was found to be 4190 nM, the “γ2/γ1 Selectivity Ratio” value came out at 114.5 and the LogSel is given as 2.06. In addition, in assay [4], the “Efficacy (GABA)%” value was 116% and the “Fold increase h-GABA-A α2β2γ1 oocyte @ 30-fold Ki” value was 2.16.

Turning to `Cc1c(C(=O)NC[C@@H](C)O)nc2n1-c1ccc(C(F)(F)F)c(Cl)c1C(c1ncccc1F)=N[C@H]2C` [Example 162, (4S)-7-chloro-6-(3-fluoro-2-pyridyl)-1,4-dimethyl-N-[(2R)-2-hydroxypropyl]-8-(trifluoromethyl)-4H-imidazo[1,2-a][1,4]benzodiazepine-2-carboxamide], the Ki in assay [1] came out at 13.6 nM. In assay [2] (setting [5]), the Ki came to 54.4 nM. Affinity in assay [2] (setting [6]) was put at a Ki of 55.7 nM. In addition, in assay [3], the Ki is 11700 nM, the “γ2/γ1 Selectivity Ratio” value is listed as 210.1 and the LogSel is reported as 2.32. For the same compound, in assay [4], the “Efficacy (GABA)%” value stood at 148% and the “Fold increase h-GABA-A α2β2γ1 oocyte @ 30-fold Ki” value turned out to be 2.48.

Regarding `Cc1cnc2n1-c1ccc(Br)c(Cl)c1C(c1c(F)cccc1F)=N[C@H]2C` [Example 116, (4S)-8-bromo-7-chloro-6-(2,6-difluorophenyl)-1,4-dimethyl-4H-imidazo[1,2-a][1,4]benzodiazepine], the inhibitory constant (Ki) in assay [1] was 2.47 nM. In assay [2] (setting [5]), this compound came in with a Ki of 5.7 nM. The affinity in assay [2] (setting [6]), expressed as Ki, was 5.7 nM. In assay [3], affinity was put at a Ki of 94.5 nM, the “γ2/γ1 Selectivity Ratio” value is recorded as 16.4 and the LogSel is 1.22. Also, in assay [4], the “Efficacy (GABA)%” value is 35% and the “Fold increase h-GABA-A α2β2γ1 oocyte @ 30-fold Ki” value is 1.35.

For the compound `C[C@@H]1N=C(c2c(F)cccc2F)c2c(ccc(Cl)c2Cl)-n2nc(C(=O)N3CC[C@@H](O)C3)nc21` [Example 47, [(4S)-7,8-dichloro-6-(2,6-difluorophenyl)-4-methyl-4H-[1,2,4]triazolo[1,5-a][1,4]benzodiazepin-2-yl]-[(3R)-3-hydroxypyrrolidin-1-yl]methanone], in assay [1], the affinity, expressed as Ki, was 1.44 nM. This compound had a Ki in assay [2] (setting [5]) of 3.4 nM. This compound also gave a Ki in assay [2] (setting [6]) of 3.43 nM. Besides, in assay [3], the Ki was determined as 1010 nM, the “γ2/γ1 Selectivity Ratio” value was found to be 294.7 and the LogSel is recorded as 2.47. In assay [4], the “Efficacy (GABA)%” value stood at 74% and the “Fold increase h-GABA-A α2β2γ1 oocyte @ 30-fold Ki” value was determined as 1.74.

In assay [1], `CO[C@H]1CCN(C(=O)c2nc3n(n2)-c2ccc(Cl)c(Cl)c2C(c2c(F)cccc2F)=N[C@H]3C)C1` [Example 45, [(4S)-7,8-dichloro-6-(2,6-difluorophenyl)-4-methyl-4H-[1,2,4]triazolo[1,5-a][1,4]benzodiazepin-2-yl]-[(3S)-3-methoxypyrrolidin-1-yl]methanone] yielded a Ki of 2.2 nM. In assay [2] (setting [5]), the Ki is 5.4 nM. The Ki in assay [2] (setting [6]) was 5.39 nM. Also, in assay [3], affinity was put at a Ki of 1350 nM, the “γ2/γ1 Selectivity Ratio” value stood at 250.3 and the LogSel worked out at 2.40. Also, in assay [4], the “Efficacy (GABA)%” value was 41% and the “Fold increase h-GABA-A α2β2γ1 oocyte @ 30-fold Ki” value came out at 1.41.

Turning to `C[C@@H]1N=C(c2c(F)cccc2F)c2c(ccc(Cl)c2Cl)-n2nc(NC(=O)N3CC(F)C3)nc21` [Example 57, 3-fluoro-N-[(4S)-7,8-dichloro-6-(2,6-difluorophenyl)-4-methyl-4H-[1,2,4]triazolo[1,5-a][1,4]benzodiazepin-2-yl]azetidine-1-carboxamide], the inhibition constant Ki in assay [1] stood at 1.84 nM; in assay [2] (setting [5]) it was 17.8 nM; in assay [2] (setting [6]), 17.8 nM; in assay [3], 822 nM. Further, the “γ2/γ1 Selectivity Ratio” value in assay [3] turned out to be 46.2. Moreover, the LogSel in assay [3] is listed as 1.67. The “Efficacy (GABA)%” value in assay [4] is 76%. Moreover, in assay [4], the “Fold increase h-GABA-A α2β2γ1 oocyte @ 30-fold Ki” value worked out at 1.76.
